# Key:
# Experiment in all cases: Test G preemergence/postemergence greenhouse plant response rating 0 to 100
# alfalfa = format: in vivo, Medicago ativa; conditions: 0 to 100 scale
# Description: (§1) Seeds, rhizomes, or plant parts of alfalfa (Medicago ativa), annual bluegrass (Poa annua), bermudagrass (Cynodon dactylon), broadleaf signalgrass (Brachiaria plantaginea), common purslane (Portulaca oleracea), common ragweed (Ambrosia elatior), […] (Paspalum dilatatum), goosegrass (Eleusine indica), guineagrass (Panicum maximum), […] exaltata), johnsongrass (Sorghum halepense), large crabgrass (Digitaria sanguinalis), peanut (Arachis hypoagaea), pitted morningglory (Ipomoea lacunosa), purple nutsedge (Cyperus rotundus), sandbur (Cenchrus echinatus), smooth crabgrass (Digitaria ischaemum) and yellow nutsedge (Cyperus esculentus) were planted into greenhouse pots containing greenhouse planting medium. Each pot contained only one plant species. The test compound was dissolved in a non-phytotoxic solvent and applied preemergence and/or postemergence to the plants. Preemergence applications were made within one day of planting the seeds or plant parts. Postemergence applications were applied when the plants were in the two to four leaf stage (three to twenty cm). Test chemicals were dissolved in a non-phytotoxic solvent and applied preemergence and postemergence to the plants. Untreated control plants and treated plants were placed in the greenhouse and visually evaluated for injury at 13 to 21 days after herbicide application. […] A dash (-) response indicates no test result.
# annual bluegrass = format: in vivo, Poa annua; conditions: 0 to 100 scale
# Description: as §1
# bermudagrass = format: in vivo, Cynodon dactylon; conditions: 0 to 100 scale
# Description: as §1
# broadleaf signalgrass = format: in vivo, Brachiaria plantaginea; conditions: 0 to 100 scale
# Description: as §1
# common purslane = format: in vivo, Portulaca oleracea; conditions: 0 to 100 scale
# Description: as §1
# common ragweed = format: in vivo, Ambrosia elatior; conditions: 0 to 100 scale
# Description: as §1
# goosegrass = format: in vivo, Eleusine indica; conditions: 0 to 100 scale
# Description: as §1
# guineagrass = format: in vivo, Panicum maximum; conditions: 0 to 100 scale
# Description: as §1
# itchgrass = format: in vivo, Rottboellia exaltata; conditions: 0 to 100 scale
# Description: as §1
# johnsongrass = format: in vivo, Sorghum halepense; conditions: 0 to 100 scale
# Description: as §1
# large crabgrass = format: in vivo, Digitaria sanguinalis; conditions: 0 to 100 scale
# Description: as §1
# peanut = format: in vivo, Arachis hypoagaea; conditions: 0 to 100 scale
# Description: as §1
# pitted morningglory = format: in vivo, Ipomoea lacunosa; conditions: 0 to 100 scale
# Description: as §1
# sandbur = format: in vivo, Cenchrus echinatus; conditions: 0 to 100 scale
# Description: as §1
# smooth crabgrass = format: in vivo, Digitaria ischaemum; conditions: 0 to 100 scale
# Description: as §1
# yellow nutsedge = format: in vivo, Cyperus esculentus; conditions: Rate 125 g/ha, 0 to 100 scale
# Description: as §1
compound,measurement,setting,value
CCCN1C(=O)COc2cc(F)c(-c3nn4c(c3Cl)CCCC4)cc21 [Compound 32],"Plant response rating, Alfalfa Var.","alfalfa; POSTEMERGENCE, Rate 125 g/ha",0
same,"Plant response rating, Alfalfa Var.","alfalfa; POSTEMERGENCE, Rate 250 g/ha",0
same,"Plant response rating, Alfalfa Var.","alfalfa; PREEMERGENCE, Rate 125 g/ha",0
same,"Plant response rating, Alfalfa Var.","alfalfa; PREEMERGENCE, Rate 250 g/ha",0
same,"Plant response rating, Ann Bluegrass","annual bluegrass; POSTEMERGENCE, Rate 125 g/ha",0
same,"Plant response rating, Ann Bluegrass","annual bluegrass; POSTEMERGENCE, Rate 250 g/ha",0
same,"Plant response rating, Ann Bluegrass","annual bluegrass; PREEMERGENCE, Rate 125 g/ha",0
same,"Plant response rating, Ann Bluegrass","annual bluegrass; PREEMERGENCE, Rate 250 g/ha",0
same,"Plant response rating, Bermudagrass","bermudagrass; POSTEMERGENCE, Rate 125 g/ha",0
same,"Plant response rating, Bermudagrass","bermudagrass; POSTEMERGENCE, Rate 250 g/ha",0
same,"Plant response rating, Bermudagrass","bermudagrass; PREEMERGENCE, Rate 125 g/ha",0
same,"Plant response rating, Bermudagrass","bermudagrass; PREEMERGENCE, Rate 250 g/ha",0
same,"Plant response rating, Brdlf Sgnlgrass","broadleaf signalgrass; POSTEMERGENCE, Rate 125 g/ha",0
same,"Plant response rating, Brdlf Sgnlgrass","broadleaf signalgrass; POSTEMERGENCE, Rate 250 g/ha",0
same,"Plant response rating, Brdlf Sgnlgrass","broadleaf signalgrass; PREEMERGENCE, Rate 125 g/ha",0
same,"Plant response rating, Brdlf Sgnlgrass","broadleaf signalgrass; PREEMERGENCE, Rate 250 g/ha",0
same,"Plant response rating, Cmn Purslane","common purslane; POSTEMERGENCE, Rate 125 g/ha",100
same,"Plant response rating, Cmn Purslane","common purslane; POSTEMERGENCE, Rate 250 g/ha",80
same,"Plant response rating, Cmn Purslane","common purslane; PREEMERGENCE, Rate 125 g/ha",0
same,"Plant response rating, Cmn Purslane","common purslane; PREEMERGENCE, Rate 250 g/ha",100
same,"Plant response rating, Cmn Ragweed","common ragweed; POSTEMERGENCE, Rate 125 g/ha",100
same,"Plant response rating, Cmn Ragweed","common ragweed; POSTEMERGENCE, Rate 250 g/ha",60
same,"Plant response rating, Cmn Ragweed","common ragweed; PREEMERGENCE, Rate 125 g/ha",0
same,"Plant response rating, Cmn Ragweed","common ragweed; PREEMERGENCE, Rate 250 g/ha",0
same,"Plant response rating, Goosegrass","goosegrass; POSTEMERGENCE, Rate 125 g/ha",0
same,"Plant response rating, Goosegrass","goosegrass; POSTEMERGENCE, Rate 250 g/ha",0
same,"Plant response rating, Goosegrass","goosegrass; PREEMERGENCE, Rate 125 g/ha",0
same,"Plant response rating, Goosegrass","goosegrass; PREEMERGENCE, Rate 250 g/ha",0
same,"Plant response rating, Guineagrass","guineagrass; POSTEMERGENCE, Rate 125 g/ha",0
same,"Plant response rating, Guineagrass","guineagrass; POSTEMERGENCE, Rate 250 g/ha",0
same,"Plant response rating, Guineagrass","guineagrass; PREEMERGENCE, Rate 125 g/ha",0
same,"Plant response rating, Guineagrass","guineagrass; PREEMERGENCE, Rate 250 g/ha",0
same,"Plant response rating, Itchgrass","itchgrass; POSTEMERGENCE, Rate 125 g/ha",0
same,"Plant response rating, Itchgrass","itchgrass; POSTEMERGENCE, Rate 250 g/ha",0
same,"Plant response rating, Itchgrass","itchgrass; PREEMERGENCE, Rate 125 g/ha",0
same,"Plant response rating, Itchgrass","itchgrass; PREEMERGENCE, Rate 250 g/ha",0
same,"Plant response rating, Johnsongrass","johnsongrass; POSTEMERGENCE, Rate 125 g/ha",0
same,"Plant response rating, Johnsongrass","johnsongrass; POSTEMERGENCE, Rate 250 g/ha",0
same,"Plant response rating, Johnsongrass","johnsongrass; PREEMERGENCE, Rate 125 g/ha",0
same,"Plant response rating, Johnsongrass","johnsongrass; PREEMERGENCE, Rate 250 g/ha",0
same,"Plant response rating, Large Crabgrass","large crabgrass; POSTEMERGENCE, Rate 125 g/ha",0
same,"Plant response rating, Large Crabgrass","large crabgrass; POSTEMERGENCE, Rate 250 g/ha",0
same,"Plant response rating, Large Crabgrass","large crabgrass; PREEMERGENCE, Rate 125 g/ha",0
same,"Plant response rating, Large Crabgrass","large crabgrass; PREEMERGENCE, Rate 250 g/ha",0
same,"Plant response rating, Peanuts","peanut; POSTEMERGENCE, Rate 125 g/ha",0
same,"Plant response rating, Peanuts","peanut; POSTEMERGENCE, Rate 250 g/ha",0
same,"Plant response rating, Peanuts","peanut; PREEMERGENCE, Rate 125 g/ha",0
same,"Plant response rating, Peanuts","peanut; PREEMERGENCE, Rate 250 g/ha",0
same,"Plant response rating, Pit Morninglory","pitted morningglory; POSTEMERGENCE, Rate 125 g/ha",70
same,"Plant response rating, Pit Morninglory","pitted morningglory; POSTEMERGENCE, Rate 250 g/ha",30
same,"Plant response rating, Pit Morninglory","pitted morningglory; PREEMERGENCE, Rate 125 g/ha",0
same,"Plant response rating, Pit Morninglory","pitted morningglory; PREEMERGENCE, Rate 250 g/ha",0
same,"Plant response rating, S. Sandbur","sandbur; POSTEMERGENCE, Rate 125 g/ha",0
same,"Plant response rating, S. Sandbur","sandbur; POSTEMERGENCE, Rate 250 g/ha",0
same,"Plant response rating, S. Sandbur","sandbur; PREEMERGENCE, Rate 125 g/ha",0
same,"Plant response rating, S. Sandbur","sandbur; PREEMERGENCE, Rate 250 g/ha",0
same,"Plant response rating, Smooth Crabgras","smooth crabgrass; POSTEMERGENCE, Rate 125 g/ha",0
same,"Plant response rating, Smooth Crabgras","smooth crabgrass; POSTEMERGENCE, Rate 250 g/ha",0
same,"Plant response rating, Smooth Crabgras","smooth crabgrass; PREEMERGENCE, Rate 125 g/ha",0
same,"Plant response rating, Smooth Crabgras","smooth crabgrass; PREEMERGENCE, Rate 250 g/ha",0
same,"Plant response rating, Yellow Nutsedge",yellow nutsedge; POSTEMERGENCE,0
same,"Plant response rating, Yellow Nutsedge",yellow nutsedge; PREEMERGENCE,0

# Source: patent publication US6358885B1, “Substituted phenylheterocyclic herbicides” (Mississippi State University, priority 1992, dated 2002)
